Our source for the IC50 values is US10688093B2, “Methods, compositions, and uses of novel Fyn kinase inhibitors” (priority 2015, dated 2020).

Each structure is given as a SMILES string.

For one assay, the target named is full-length recombinant human FYN A (Homo sapiens (Human), UniProt P06241). The assay is described as follows: ADP-Glo Kinase Assay of FYN kinase inhibition. The class given is biochemical. As to conditions: primary screen, initial compounds. In short, it runs like this: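 GST-tagged full-length FYN A (baculovirus, Sf9) at 3 pg preincubated 30 min RT with compound (10-point 3-fold series from 10 μM) in Tris pH 7.5/MgCl2 buffer. 12-mer tyrosine peptide plus 12.5 pmol ATP added, 90 min RT; ADP measured by ADP-Glo luminescence, IC50 from dose-response.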
Chain of full-length recombinant human FYN A (P06241 whole entry): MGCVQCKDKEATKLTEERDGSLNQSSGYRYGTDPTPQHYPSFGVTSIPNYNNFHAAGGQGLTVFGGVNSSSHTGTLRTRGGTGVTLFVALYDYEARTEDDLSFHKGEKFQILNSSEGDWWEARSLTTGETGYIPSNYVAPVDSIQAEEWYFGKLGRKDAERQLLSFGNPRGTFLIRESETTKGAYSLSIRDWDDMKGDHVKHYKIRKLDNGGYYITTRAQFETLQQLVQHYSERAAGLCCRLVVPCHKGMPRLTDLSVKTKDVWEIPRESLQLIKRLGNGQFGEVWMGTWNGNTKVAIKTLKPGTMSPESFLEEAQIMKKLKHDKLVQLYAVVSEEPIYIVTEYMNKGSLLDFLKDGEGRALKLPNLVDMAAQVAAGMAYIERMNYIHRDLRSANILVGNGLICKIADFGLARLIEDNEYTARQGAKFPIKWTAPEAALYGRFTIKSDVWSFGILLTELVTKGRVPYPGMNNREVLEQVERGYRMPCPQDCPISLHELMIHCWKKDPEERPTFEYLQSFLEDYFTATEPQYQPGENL
For orientation: ADP-Glo turns the ADP formed in a reaction into a luminescent signal.
What is called IC50 is the concentration that inhibits the measured activity by half. In the case of `CC(=O)c1cccc(-c2ccc3ncc(-c4cccc(CO)c4)n3n2)c1` [Compound 375, 1-[3-[3-[3-(hydroxymethyl)phenyl]imidazo [1,2-b]pyridazin-6-yl]phenyl] ethanone], the half-maximal inhibitory concentration (IC50) worked out at 2170 nM.
As to `CN1CCN(c2ccc(-c3cn4c(-c5ccccc5)cnc4cn3)cn2)CC1` [Compound 245, 6-[6-(4-methylpiperazin-1-yl)-3-pyridyl]-3-phenyl-imidazo[1,2-a]pyrazine], the IC50 came to 10900 nM.
Consider `c1ccc(Cc2ccc3ncc(-c4ccncc4)n3n2)cc1` [Compound 425, 6-benzyl-3-(4-pyridyl)imidazo [1,2-b]pyridazine], for which the IC50 was 624 nM.
As to `COc1cncc(-c2ccc3ncc(-c4cccc(NC(C)=O)c4)n3n2)c1` [Compound 343, N-[3-[6-(5-methoxy-3-pyridyl)imidazo [1,2-b]pyridazin-3-yl]phenyl] acetamide], the IC50 was determined as 614 nM.
For `CCCNc1ccc2ncc(-c3ccc(OC)cc3)n2n1` [229_0226_0280, 3-(4-methoxyphenyl)-N-propyl-imidazo[1,2-b]pyridazin-6-amine], the IC50 stood at 5430 nM.
On to `CC(=O)c1cccc(-c2cnc3ccc(-c4ccc(N)nc4)nn23)c1` [Compound 377, 1-[3-[6-(6-amino-3-pyridyl)imidazo[1,2-b]pyridazin-3-yl]phenyl] ethanone], for which the IC50 is 283 nM.
On to `c1ccc(-c2cnc3ccc(NCc4ccncc4)nn23)cc1` [229_0237_0061, 3-phenyl-N-(4-pyridylmethyl) imidazo[1,2-b]pyridazin-6-amine], for which the IC50 stood at 4060 nM.
`CC(=O)Nc1cccc(-c2ccc3ncc(-c4ccc(CO)cc4)n3n2)c1` [Compound 443, N-[3-[3-[4-(hydroxymethyl)phenyl]imidazo [1,2-b]pyridazin-6-yl]phenyl] acetamide]: the IC50 turned out to be 2240 nM.
Take `Oc1cccc(-c2cnc3ccc(-c4ccncc4)nn23)c1` [Compound 382, 3-[6-(4-pyridyl)imidazo [1,2-b]pyridazin-3-yl]phenol]: the IC50 is 203 nM.
For `COc1ccc(-c2cnc3ccc(-c4cccc(F)c4)nn23)cc1OC` [Compound 316, 3-(3,4-dimethoxy-phenyl)-6-(3-fluorophenyl) imidazo[1,2-b]pyridazine], the IC50 came out at 1040 nM.
For `CN(C)c1cccc(-c2cc(-c3cccnc3)cnc2N)c1` [382_0135_0071, 3-[3-(dimethyl-amino)phenyl]-5-(3-pyridyl)pyridin-2-amine], the IC50 was determined as 7110 nM.
As for `Oc1ccc(-c2cnc3cnc(-c4cnn(Cc5ccccc5)c4)cn23)cc1` [388_0080_7469, 4-[6-(1-benzylpyrazol-4-yl)imidazo[1,2-a]pyrazin-3-yl]phenol], the IC50 is 6620 nM.
With `COc1cc(-c2cc(-c3cc(C)c(O)c(C)c3)cnc2N)ccc1O` [382_0314_0315, 4-[6-amino-5-(4-hydroxy-3-methoxy-phenyl)-3-pyridyl]-2,6-dimethyl-phenol], the IC50 is 526 nM.
`COc1ccc(-c2ccnc3[nH]nc(-c4cc(OC)c(OC)c(OC)c4)c23)cn1` [Compound 529, 4-(6-methoxy-3-pyridyl)-3-(3,4,5-trimethoxy-phenyl)-1H-pyrazolo[3,4-b]pyridine]: the IC50 was 16900 nM.
Turning to `CN(C)CCNC(=O)c1ccc(-c2cn3c(-c4ccc(Cl)cc4)cnc3cn2)cc1` [Compound 240, 4-[3-(4-chlorophenyl)imidazo[1,2-a]pyrazin-6-yl]-N-(2-dimethylamino-ethyl)benzamide], the IC50 amounted to 4160 nM.
As for `Cn1cc(-c2ccc3ncc(-c4ccc5c(c4)OCO5)n3n2)cn1` [Compound 390, 3-(1,3-benzodioxol-5-yl)-6-(1-methylpyrazol-4-yl)imidazo[1,2-b]pyridazine], the IC50 stood at 956 nM.
For the molecule `COc1cc(-c2cnc3ccc(NCCCO)nn23)ccc1O` [229_0248_0314, 4-[6-(3-hydroxy-propylamino)imidazo[1,2-b]pyridazin-3-yl]-2-methoxy-phenol], the IC50 was determined as 329 nM.
Regarding `CS(=O)(=O)Nc1cccc(-c2ccc3ncc(-c4ccncc4)n3n2)c1` [Compound 304, N-[3-[3-(4-pyridyl)imidazo [1,2-b]pyridazin-6-yl]phenyl] methane-sulfonamide], the IC50 worked out at 298 nM.
As for `COCOc1ccc(-c2cc(-c3cc(OC)c(OC)c(OC)c3)cnc2N)cc1` [382_0341_0087, 3-[4-(methoxymethoxy)phenyl]-5-(3,4,5-trimethoxy-phenyl)pyridin-2-amine], the IC50 was found to be 1900 nM.
Regarding `COc1ccccc1-c1cc2c(Nc3cccc(C(F)(F)F)c3)nccc2n1C` [Compound 598, 2-(2-methoxyphenyl)-1-methyl-N-[3-(trifluoromethyl)phenyl]pyrrolo [3,2-c]pyridin-4-amine], the IC50 came to 30000 nM.
For the molecule `COc1ccccc1-c1n[nH]c2nccc(-c3ccsc3)c12` [Compound 498, 3-(2-methoxyphenyl)-4-(3-thienyl)-1H-pyrazolo[3,4-b]pyridine], the IC50 amounted to 2670 nM.
For the molecule `CC(=O)c1cccc(-c2ccc3ncc(-c4cccc(O)c4)n3n2)c1` [Compound 373, 1-[3-[3-(3-hydroxyphenyl)imidazo[1,2-b]pyridazin-6-yl]phenyl] ethanone], the IC50 worked out at 1600 nM.
For `OCc1cccc(-c2ccc3ncc(-c4cccs4)n3n2)c1` [Compound 387, [3-[3-(2-thienyl)imidazo [1,2-b]pyridazin-6-yl]phenyl] methanol], the IC50 is 1680 nM.
As to `CN(C)CCCNC(=O)c1ccc(-c2cn3c(-c4ccsc4)cnc3cn2)cc1` [Compound 222, N-[3-(dimethylamino)propyl]-4-[3-(3-thienyl)imidazo [1,2-a]pyrazin-6-yl]benzamide], the IC50 stood at 3870 nM.
On the same count and under the same terms, under `OCc1ccc(-c2ccc3ncc(-c4cccc(O)c4)n3n2)cc1` [Compound 363, 3-[6-[4-(hydroxymethyl)phenyl]imidazo [1,2-b]pyridazin-3-yl]phenol] stands 285 nM.
For the molecule `Oc1ccc(-c2cnc3sc(NC4CCC(O)CC4)nn23)cc1` (stereo not drawn) [Compound 265, 4-[2-[(4-hydroxycyclo-hexyl)amino]imidazo[2,1-b] [1,3,4]thiadiazol-5-yl]phenol], the IC50 is 3800 nM.
As for `CN(C)C(=O)c1cccc(-c2cnc3sc(NC4CCC(O)CC4)nn23)c1` (stereo not drawn) [Compound 253, 3-[2-[(4-hydroxycyclo-hexyl)amino]imidazo[2,1-b] [1,3,4]thiadiazol-5-yl]-N,N-dimethyl-benzamide], the IC50 amounted to 533 nM.
In the case of `COc1cc(-c2cc(-c3cccc(O)c3)cnc2N)cc(OC)c1OC` [382_0087_0284, 3-[6-amino-5-(3,4,5-trimethoxy-phenyl)-3-pyridyl]phenol], the IC50 was 723 nM.
Same read-out and setting: under `Cn1cc(-c2cnc3sc(NCc4ccco4)nn23)cn1` [Compound 580, N-(2-furylmethyl)-5-(1-methylpyrazol-4-yl)imidazo [2,1-b][1,3,4] thiadiazol-2-amine] stands 5640 nM.
Regarding `CC(=O)Nc1cccc(-c2ccc3ncc(-c4cccc(CO)c4)n3n2)c1` [Compound 288, N-[3-[3-[3-(hydroxymethyl)phenyl]imidazo [1,2-b]pyridazin-6-yl]phenyl] acetamide], the 50% inhibitory concentration (IC50) turned out to be 1640 nM.
The same measure, in the same setting: the same measure for `Cn1cc(-c2cnc3ccc(Cc4ccc(F)cc4)nn23)cn1` [Compound 481, 6-[(4-fluorophenyl)methyl]-3-(1-methylpyrazol-4-yl)imidazo [1,2-b]pyridazine]: 1300 nM; for `CC(=O)Nc1cccc(-c2cnc3ccc(-c4cccs4)nn23)c1` [Compound 371, N-[3-[6-(2-thienyl)imidazo [1,2-b]pyridazin-3-yl]phenyl] acetamide]: 210 nM; for `COc1cc(-c2n[nH]c3nccc(-c4ccc(C(=O)N(C)C)cc4)c23)cc(OC)c1OC` [Compound 522, N,N-dimethyl-4-[3-(3,4,5-trimethoxy-phenyl)-1H-pyrazolo[3,4-b]pyridin-4-yl]benzamide]: 11100 nM.
With `OCc1cccc(-c2ccc3ncc(-c4ccccc4)n3n2)c1` [Compound 446, [3-(3-phenylimidazo [1,2-b]pyridazin-6-yl)phenyl] methanol], the IC50 was 1930 nM.
On to `COc1cncc(-c2cnc3ccc(Cc4ccccc4)nn23)c1` [Compound 467, 6-benzyl-3-(5-methoxy-3-pyridyl)imidazo [1,2-b]pyridazine], for which the IC50 is 2670 nM.
With `COc1ccc(-c2cnn3ccc(NCc4cccnc4)nc23)cc1OC` [294_4003_0079, 3-(3,4-dimethoxy-phenyl)-N-(3-pyridylmethyl) pyrazolo[1,5-a]pyrimidin-5-amine], the IC50 is 1640 nM.
Still for that read-out and setting: under `CC(=O)Nc1ccc(-c2ccc3ncc(-c4cccc(O)c4)n3n2)cc1` [Compound 283, N-[4-[3-(3-hydroxyphenyl)imidazo[1,2-b]pyridazin-6-yl]phenyl] acetamide] stands 519 nM.

Still in this assay, the particulars now being: secondary screen, re-synthesized and expanded compounds.
Consider `CS(=O)(=O)c1ccc(-c2cnc(N)c(-c3ccc(O)cc3)c2)cc1` [BF000313563, 4-[2-amino-5-(4-methyl-sulfonyl-phenyl)-3-pyridyl)-phenol], for which the IC50 was 1550 nM.
As to `COc1cc(-c2cnc3cnc(-c4ccc(C(=O)NCCN(C)C)cc4)cn23)ccc1O` [BF000334023, N-[2-(dimethyl-amino)ethyl]-4-[3-(4-hydroxy-3-methoxy-phenyl)-imidazo[1,2-a]pyrazin-6-yl]benzamide], the IC50 turned out to be 337 nM.
The same measure, in the same setting: under `COc1cc(-c2ccc3ncc(-c4ccc(O)c(OC)c4)n3n2)ccc1O` [BF000817186, 4-[3-(4-hydroxy-3-methoxy-phenyl)-imidazo[1,2-b]pyridazin-6-yl]-2-methoxy-phenol] stands 29.4 nM.
With `COc1cc(-c2cnc3ccc(NCc4ccc5c(c4)OCO5)nn23)ccc1O` [BF000146126, 4-[6-(1,3-benzodioxol-5-ylmethyl-amino)-imidazo[1,2-b]pyridazin-3-yl]-2-methoxy-phenol], the IC50 was determined as 1310 nM.
For the molecule `COc1ccc(-c2cnc3ccc(NCc4cccs4)nn23)cc1OC` [BF000146992, 3-(3,4-dimetboxy-phenyl)-N-(2-thienyl-methyl)-imidazo[1,2-b]pyridazin-6-amine], the IC50 came to 721 nM.
